We go through 26 molecules from patent US20210024545A1, “SUBSTITUTED DIAZAHETERO-BICYCLIC COMPOUNDS AND THEIR USE” (Bayer Aktiengesellschaft, priority 2016, published 2021).

One test concerns the target human TASK-1 (Homo sapiens, UniProt O14649). Nature of the test: Inhibition of recombinant TASK-1 in stably transfected CHO cells, KCl-induced depolarization, voltage-sensitive dye (B-2). The class given is cell-based. Details: expressed in transfected cells; host or cells: stably transfected CHO cells. Particulars: depolarization induced by 40 mM potassium chloride, some mean values from multiple determinations. Summed up: (§1)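 Stably transfected CHO cells loaded with a voltage-sensitive membrane potential dye. Depolarization was induced with 40 mM KCl, and compound inhibition of it was read by fluorescence. IC50 is the concentration blocking half of the KCl-induced depolarization; some values are means of multiple independent determinations.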

In another test the target is human TASK-3 (Homo sapiens, UniProt Q9NPC2). Briefly: Inhibition of recombinant TASK-3 in stably transfected CHO cells, KCl-induced depolarization, voltage-sensitive dye (B-2). The conditions noted are these: depolarization induced by 40 mM potassium chloride, some mean values from multiple determinations. The class given is cell-based. Details: expressed in transfected cells; host or cells: stably transfected CHO cells. In short, it runs like this: as §1
Sequence of human TASK-3 (Q9NPC2 whole entry): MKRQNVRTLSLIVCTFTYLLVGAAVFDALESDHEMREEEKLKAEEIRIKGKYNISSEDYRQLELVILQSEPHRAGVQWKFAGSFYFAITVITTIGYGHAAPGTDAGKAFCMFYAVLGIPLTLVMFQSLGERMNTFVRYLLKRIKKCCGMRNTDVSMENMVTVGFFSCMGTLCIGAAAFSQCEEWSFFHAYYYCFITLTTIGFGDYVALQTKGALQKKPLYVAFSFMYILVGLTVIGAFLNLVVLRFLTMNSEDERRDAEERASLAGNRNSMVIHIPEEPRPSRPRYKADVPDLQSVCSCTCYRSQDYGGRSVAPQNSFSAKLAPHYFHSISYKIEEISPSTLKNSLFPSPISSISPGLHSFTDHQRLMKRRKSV

Sequence of human TASK-1 (O14649 whole entry): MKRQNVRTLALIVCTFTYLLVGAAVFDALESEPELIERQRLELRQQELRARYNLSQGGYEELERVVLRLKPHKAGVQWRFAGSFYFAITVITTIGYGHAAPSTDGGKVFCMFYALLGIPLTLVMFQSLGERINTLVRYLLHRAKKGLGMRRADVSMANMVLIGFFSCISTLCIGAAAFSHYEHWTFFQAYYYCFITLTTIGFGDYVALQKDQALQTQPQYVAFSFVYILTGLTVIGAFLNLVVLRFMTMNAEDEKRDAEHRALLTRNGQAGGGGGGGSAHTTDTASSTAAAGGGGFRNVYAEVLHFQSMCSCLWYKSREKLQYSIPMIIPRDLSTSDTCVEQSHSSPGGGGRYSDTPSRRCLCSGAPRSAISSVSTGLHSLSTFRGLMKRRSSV

Consider `O=C(c1nccs1)N1C2CCC1CN(Cc1c(-c3ccc(Cl)cc3)nc3ccccn13)C2` [Example 147, (3-{[2-(4-Chlorophenyl)imidazo[1,2-a]pyridin-3-yl]methyl}-3,8-diazabicyclo[3.2.1]oct-8-yl)(1,3-thiazol-2-yl)methanone], for which the IC50 at human TASK-1 is 12 nM; at human TASK-3 it was 15 nM.

For `Cc1ccc(F)cc1C(=O)N1C2CCC1CN(Cc1c(-c3ccc(Cl)cc3)nc3ccccn13)C2` [Example 107], the figures for the IC50 on human TASK-1 and on human TASK-3 were 1000 nM and 33 nM, respectively.

Consider `O=C(c1ccccc1F)N1C2CCC1CN(Cc1c(-c3ccc(Br)cc3)nc3ccccn13)C2` [Example 97], for which the IC50 turned out to be 390 nM on human TASK-1 and 7.8 nM on human TASK-3.

In the case of `O=C(c1cccc(OC2CCC2)n1)N1C2COCC1CN(Cc1c(-c3ccc(Cl)cc3)nc3ccccn13)C2` [Example 31, (7-{[2-(4-Chlorophenyl)imidazo[1,2-a]pyridin-3-yl]methyl}-3-oxa-7,9-diazabicyclo[3.3.1]non-9-yl)[6-(cyclobutyloxy)pyridin-2-yl]methanone], the IC50 amounted to 310 nM on human TASK-1 and 26 nM on human TASK-3.

As to `CCCCCNC(=O)N1C2CCC1CN(Cc1c(-c3ccc(Cl)cc3)nc3ccccn13)C2` [Example 158, 3-{[2-(4-Chlorophenyl)imidazo[1,2-a]pyridin-3-yl]methyl}-N-pentyl-3,8-diazabicyclo[3.2.1]octane-8-carboxamide], the IC50 amounted to 760 nM on human TASK-1 and 110 nM on human TASK-3.

For `O=C(c1ccccc1F)N1CC2CCC1CN2Cc1c(-c2ccc(Br)cc2)nc2ccccn12` (racemic) [Example 152, (5-{[2-(4-Bromophenyl)imidazo[1,2-a]pyridin-3-yl]methyl}-2,5-diazabicyclo[2.2.2]oct-2-yl)(2-fluorophenyl)methanone], the figures for the IC50 on human TASK-1 and on human TASK-3 were 2900 nM and 75 nM, respectively.

As to `O=C(OC1CCCCC1)N1C2CCC1CN(Cc1c(-c3ccc(Cl)cc3)nc3ccccn13)C2` [Example 187, Cyclohexyl 3-{[2-(4-chlorophenyl)imidazo[1,2-a]pyridin-3-yl]methyl}-3,8-diazabicyclo[3.2.1]octane-8-carboxylate], the figures for the IC50 at human TASK-1 and at human TASK-3 were 3800 nM and 200 nM, respectively.

With `CC(C)(C)OC(=O)N1C2CCC1CN(Cc1c(-c3ccc(Cl)cc3)nc3ccccn13)C2` [Example 10], the IC50 at human TASK-1 came out at 1090 nM; at human TASK-3 it was 230 nM.

Consider `O=C(C1CCC1)N1CC2CCC1CN2Cc1c(-c2ccc(Cl)cc2)nc2ccccn12` (single isomer, unassigned) [Example 43], for which the IC50 worked out at 320 nM on human TASK-1 and 8.9 nM at human TASK-3.

In the case of `O=C(c1cccc(OC(F)(F)F)n1)N1C2COCC1CN(Cc1c(-c3ccc(Cl)cc3)nc3ccccn13)C2` [Example 80], the IC50 came out at 310 nM on human TASK-1 and 15 nM at human TASK-3.

As to `O=C(c1cc(F)ccc1Cl)N1CC2CCC1CN2Cc1c(-c2ccc(Cl)cc2)nc2ccccn12` (single isomer, unassigned) [Example 41], the IC50 at human TASK-1 turned out to be 76 nM; at human TASK-3, 3.9 nM.

With `CC(C)c1cccc(C(=O)N2C3COCC2CN(Cc2c(-c4ccc(Cl)cc4)nc4ccccn24)C3)c1` [Example 76], the results for the IC50 at human TASK-1 and on human TASK-3 were 240 nM and 14 nM, respectively.

Consider `O=C(C1CCCCC1)N1C2CCC1CN(Cc1c(-c3ccc(Cl)cc3)nc3ccccn13)C2` [Example 105], for which the IC50 at human TASK-1 turned out to be 830 nM; at human TASK-3, 20 nM.

As to `COc1cccc(C(=O)N2CC3CCC2CN3Cc2c(-c3ccc(Cl)cn3)nc3ccccn23)n1` (stereo not shown) [Example 65], the IC50 at human TASK-1 stood at 2000 nM; at human TASK-3 it was 460 nM.

For `COc1ccc(C)c(C(=O)N2CC3CCC(C2)N3Cc2c(-c3ccc(Cl)cc3)nc3ccccn23)n1` [Example 143, (8-{[2-(4-Chlorophenyl)imidazo[1,2-a]pyridin-3-yl]methyl}-3,8-diazabicyclo[3.2.1]oct-3-yl)(6-methoxy-3-methylpyridin-2-yl)methanone], the IC50 at human TASK-1 was 130 nM; at human TASK-3, 14 nM.

With `CC(C)N(C(=O)N1C2CCC1CN(Cc1c(-c3ccc(Cl)cc3)nc3ccccn13)C2)c1ccc(Cl)cc1` [Example 182, N-(4-Chlorophenyl)-3-{[2-(4-chlorophenyl)imidazo[1,2-a]pyridin-3-yl]methyl}-N-isopropyl-3,8-diazabicyclo[3.2.1]octane-8-carboxamide], the IC50 was found to be 6100 nM on human TASK-1 and 1000 nM at human TASK-3.

Regarding `CC(C)N(C)C(=O)N1C2COCC1CN(Cc1c(-c3ccc(Cl)cc3)nc3ccccn13)C2` [Example 194, 7-{[2-(4-Chlorophenyl)imidazo[1,2-a]pyridin-3-yl]methyl}-N-isopropyl-N-methyl-3-oxa-7,9-diazabicyclo[3.3.1]nonane-9-carboxamide], the IC50 came to 3000 nM on human TASK-1 and 290 nM on human TASK-3.

Consider `Cc1ccc(C)c(NC(=O)N2C3CCC2CN(Cc2c(-c4ccc(Cl)cc4)nc4ccccn24)C3)c1` [Example 163, 3-{[2-(4-Chlorophenyl)imidazo[1,2-a]pyridin-3-yl]methyl}-N-(2,5-dimethylphenyl)-3,8-diazabicyclo[3.2.1]octane-8-carboxamide], for which the values for the 50% inhibitory concentration (IC50) on human TASK-1 and at human TASK-3 were 1400 nM and 160 nM, respectively.

For the molecule `O=C(c1ccccc1F)N1CC2CCC1CN2Cc1c(-c2ccc(Cl)cn2)nc2ccccn12` (stereo not shown) [Example 64], the figures for the IC50 on human TASK-1 and on human TASK-3 were 280 nM and 17 nM, respectively.

Turning to `CCN(CC)C(=O)N1C2COCC1CN(Cc1c(-c3ccc(Cl)cc3)nc3ccccn13)C2` [Example 188, 7-{[2-(4-Chlorophenyl)imidazo[1,2-a]pyridin-3-yl]methyl}-N,N-diethyl-3-oxa-7,9-diazabicyclo[3.3.1]nonane-9-carboxamide], the IC50 turned out to be 60 nM at human TASK-1 and 5.9 nM on human TASK-3.

As for `O=C(Nc1c(Cl)cccc1Cl)N1C2CCC1CN(Cc1c(-c3ccc(Cl)cc3)nc3ccccn13)C2` [Example 156, 3-{[2-(4-Chlorophenyl)imidazo[1,2-a]pyridin-3-yl]methyl}-N-(2,6-dichlorophenyl)-3,8-diazabicyclo[3.2.1]octane-8-carboxamide], the IC50 on human TASK-1 came to 1200 nM; at human TASK-3, 15 nM.

As for `COc1ccccc1C(=O)N1C2CCC1CN(Cc1c(-c3ccc(Cl)cc3)nc3ccccn13)C2` [Example 109], the figures for the IC50 on human TASK-1 and at human TASK-3 were 693 nM and 92 nM, respectively.

With `O=C(c1cccc(OC(F)(F)F)c1)N1CC2CCC1CN2Cc1c(-c2ccc(Cl)cc2)nc2ccccn12` (single isomer, unassigned) [Example 48], the IC50 at human TASK-1 came to 390 nM; on human TASK-3, 17 nM.

In the case of `O=C(C1CCCCC1)N1CC2CCC1CN2Cc1c(-c2ccc(Cl)cc2)nc2ccccn12` (single isomer, unassigned) [Example 42], the values for the IC50 at human TASK-1 and at human TASK-3 were 880 nM and 17 nM, respectively.

`Cc1ccccc1C(=O)N1C2CCC1CN(Cc1c(-c3ccc(Cl)cc3)nc3ccccn13)C2` [Example 100]: the IC50 at human TASK-1 was found to be 250 nM; on human TASK-3 it was 17 nM.

Consider `COc1ccc(C)c(C(=O)N2C3COCC2CN(Cc2c(-c4ccc(Cl)cc4)nc4ccccn24)C3)n1` [Example 81], for which the results for the IC50 on human TASK-1 and at human TASK-3 were 520 nM and 25 nM, respectively.
